Source: US10722466B2, “Liposomal formulation for use in the treatment of cancer” (LES LABORATOIRES SERVIER, priority 2016, dated 2020)

Columns and labels:
[1] = Aqueous solubility of Compound A; format: physicochemical; settings: all pHs, including physiologically relevant pHs
[2] = In vitro release assay: release of Compound A from SUV to acceptor multilamellar vesicles (MLVs); format: physicochemical
Description: The aim of this experiment was to investigate the release rate of Compound A from small unilamellar vesicles (SUV; used here as a drug carrier system, see Example 3A) to large multilamellar vesicles (MLVs) consisting of egg phospholipids, and used as a lipophilic acceptor for drug released (see Shabbits J. A., Chiu G. N. and Mayer L. D. “Development of an in vitro drug release assay that accurately predicts in vivo drug retention for liposome-based delivery systems” Journal of Controlled Release 2002, 84(3), 161-170).
Multilamellar vesicles were prepared by using the Film-Hydration method. In short, egg phospholipids (Lipoid E 80 S) were weighed out and completely dissolved in organic solvent (EtOH/DCM at 4:1 v/v) to assure a homogenous mixture of all components.
Next, the organic solvent was removed using rotary evaporation (first step: 200 mbar, 50° C., 2 hours; second step: 30 mbar, 50° C., 45 minutes) to yield a homogenous lipid film. To assure complete removal of the organic solvent, the flask was flushed with nitrogen. Next, the film was rehydrated using phosphate buffered saline (PBS, pH 7.4) yielding MLVs and upon complete rehydration the MLVs were exposed to sonication for 15 minutes.
To have the MLVs resuspended in the same buffer system as the SUVs, the suspension was centrifuged for 10 minutes at 14,000 g, the supernatant (PBS) was removed, and replaced by sucrose histidine buffer. Lastly, the mixture was vortexed thoroughly to assure complete redispersion of the MLVs in the new medium before starting the release experiment.
SUVs (donor) were mixed with MLVs (acceptor) in a 25 ml Erlenmeyer flask with a stopper under stirring (500 rpm) at various ratios (1:40, 1:100, 1:200, 1:500; SUV:MLV v/v). 1 ml samples were taken at different time points and immediately centrifuged (14′000 rpm, 10 minutes) to separate the MLVs from SUVs for further processing. FIG. 3 herein is a schematic depicting the principle of the MLV-based release assay.
Next, the MLV portion was removed via suction and 50 μl of the SUV portion were mixed with 450 μl of ACN:H2O for HPLC sample preparation. The sample was then centrifuged (14′000 rpm, 10 minutes), the supernatant was filtered using a 0.22 μm filter and injected into the HPLC for analysis.
A high performance liquid chromatography (HPLC) system with UV detection including the following equipment settings and solvent systems were employed:
Compound A release was measured using MLVs as the acceptor compartment. Here, Compound A-loaded SUVs (7.5 mg/ml) were added to these MLVs at different ratios (v/v).
Note: For all MLV release experiments, the maximum concentration (maxC=100%) was obtained by diluting the 7.5 mg/ml loaded SUVs 1 to 40, 1 to 100, 1 to 200, or 1 to 500 (v/v) in Sucrose Histidine buffer instead of MLVs.

SMILES: COc1ccccc1-c1nccc(COc2ccccc2CC(Oc2ncnc3sc(-c4ccc(F)cc4)c(-c4ccc(OCCN5CCN(C)CC5)c(Cl)c4C)c23)C(=O)O)n1 [Compound A, (2R)-2-{[(5Sa)-5-{3-chloro-2-methyl-4-[2-(4-methylpiperazin-1-yl)ethoxy]phenyl}-6-(4-fluorophenyl)thieno[2,3-d]pyrimidin-4-yl]oxy}-3-(2-{[2-(2-methoxyphenyl)pyrimidin-4-yl]methoxy}phenyl)propanoic acid]
- Aqueous solubility [1]: limited aqueous solubility across all pHs
- Initial amount of Compound A still detectable in the SUV portion ([2]; SUV:MLV 1 to 40 (v/v), after 2 minutes, 7.5 mg/ml loaded SUVs): about 44%
- Compound A released or transferred to the acceptor MLV ([2]; SUV:MLV 1 to 40 (v/v), t=2 minutes): ~60%
- Compound A released to the acceptor MLV ([2]; SUV:MLV 1 to 100 (v/v), t=2 minutes): ~70%
- Compound A released to the acceptor MLV ([2]; SUV:MLV 1 to 200 (v/v), t=2 minutes): ~80%
- Compound A released to the acceptor MLV ([2]; SUV:MLV 1 to 500 (v/v), t=2 minutes): ~90%
- Drug substance released (maximum over the ratios tested) ([2]; after only 2 minutes): up to 90%
